Common to all, as to format: functional
The test system of one assay is Staphylococcus aureus. The experiment in a line: Antibacterial activity against Staphylococcus aureus assessed as bacterial growth inhibition by CLSI protocol based broth microdilution assay. For orientation: Broth dilution looks for growth in wells or tubes with falling amounts of substance.
Assay [1] has as its system Staphylococcus epidermidis. The experiment in a line: Antibacterial activity against Staphylococcus epidermidis assessed as bacterial growth inhibition by CLSI protocol based broth microdilution assay.
The subject of a further assay is Bacillus subtilis. The assay is described as follows: Antibacterial activity against Bacillus subtilis assessed as bacterial growth inhibition by CLSI protocol based broth microdilution assay.
The next assay relates to Mycolicibacterium phlei. The experiment in a line: Antibacterial activity against Mycobacterium phlei assessed as bacterial growth inhibition by CLSI protocol based broth microdilution assay.

Values after ≈ are worked out from the molar mass of the structure shown.

For orientation: MIC means the lowest concentration that inhibits growth of the organism. `Cc1cc(O)c2c(c1)C(=O)C1=C(C2=O)[C@H]2C(O)=C3C(=O)c4c(O)cc(C)cc4C(=O)[C@@]34CC(=O)C1C4[C@H]2O` (stereo not given in full): the minimal inhibitory concentration (MIC) (in the assay on Staphylococcus aureus; in assay [1]; in the assay with Bacillus subtilis; in the assay with Mycolicibacterium phlei) was 0.4 µg/mL (≈ 0.781 µM) throughout.

Take `Cc1cc(O)c2c(c1)C(=O)[C@]13C[C@H](O)C4C1[C@@H](O)[C@H](C(O)=C3C2=O)[C@@]12O[C@@]41C(=O)c1cc(C)cc(O)c1C2=O` (stereo not given in full): the minimum inhibitory concentration (MIC) with Staphylococcus aureus is 0.4 µg/mL (≈ 0.754 µM); in assay [1] it was 0.4 µg/mL (≈ 0.754 µM); in the assay on Bacillus subtilis, 0.4 µg/mL (≈ 0.754 µM); in the assay with Mycolicibacterium phlei it was 0.8 µg/mL (≈ 1.51 µM).

Turning to `Cc1cc(O)c2c(c1)C(=O)C1=C(C2=O)[C@H]2C(O)=C3C(=O)c4c(O)cc(C)cc4C(=O)[C@@]34C[C@H](O)C1C4[C@H]2O` (stereo not given in full), the MIC (in the assay on Staphylococcus aureus; in assay [1]; in the assay on Bacillus subtilis; in the assay with Mycolicibacterium phlei) was 1.6 µg/mL (≈ 3.11 µM) throughout.

As for `Cc1cc(O)c2c(c1)C(=O)[C@]13C[C@H](O)C4C1[C@@H](O)[C@H](C(O)=C3C2=O)[C@@]12O[C@@]41C(=O)c1cc(C)cc(O)c1[C@H]2O` (stereo not given in full), the MIC was determined as 6.5 µg/mL (≈ 12.2 µM) with Staphylococcus aureus, 3.3 µg/mL (≈ 6.2 µM) in assay [1], 6.5 µg/mL (≈ 12.2 µM) with Bacillus subtilis and 6.5 µg/mL (≈ 12.2 µM) with Mycolicibacterium phlei.

Take `O=C(N[C@H](CO)[C@H](O)c1ccc([N+](=O)[O-])cc1)C(Cl)Cl` [CHLORAMPHENICOL]: the minimum inhibitory concentration (MIC) is 0.3 µg/mL (≈ 0.928 µM) in the assay with Staphylococcus aureus, 1.5 µg/mL (≈ 4.64 µM) in assay [1], 0.8 µg/mL (≈ 2.48 µM) in the assay on Bacillus subtilis and 1.3 µg/mL (≈ 4.02 µM) with Mycolicibacterium phlei.

(Values after ChEMBL document CHEMBL5215010, “Dothideomins A-D, Antibacterial Polycyclic Bisanthraquinones from the Endophytic Fungus Dothideomycetes sp. BMC-101” (2022).)
